Data set [1] is described as follows: Inhibition of NF-kappaB activation transfected in PMA-stimulated HEK293 cells after 16 hrs by luciferase reporter gene assay. It counts as cell-based. The settings on record: HEK293, 16 h. A general note: In a reporter assay the amount or activity of a reporter protein is the signal.
Data set [2] addresses Tyrosine-protein kinase JAK2 (Homo sapiens) (UniProt O60674). Kind of data set: Inhibition of JAK2 at 10 uM.
The target of data set [3] is T1, Serine/threonine-protein kinase tousled-like 1 (Homo sapiens) (UniProt Q9UKI8).
T1 sequence (whole entry): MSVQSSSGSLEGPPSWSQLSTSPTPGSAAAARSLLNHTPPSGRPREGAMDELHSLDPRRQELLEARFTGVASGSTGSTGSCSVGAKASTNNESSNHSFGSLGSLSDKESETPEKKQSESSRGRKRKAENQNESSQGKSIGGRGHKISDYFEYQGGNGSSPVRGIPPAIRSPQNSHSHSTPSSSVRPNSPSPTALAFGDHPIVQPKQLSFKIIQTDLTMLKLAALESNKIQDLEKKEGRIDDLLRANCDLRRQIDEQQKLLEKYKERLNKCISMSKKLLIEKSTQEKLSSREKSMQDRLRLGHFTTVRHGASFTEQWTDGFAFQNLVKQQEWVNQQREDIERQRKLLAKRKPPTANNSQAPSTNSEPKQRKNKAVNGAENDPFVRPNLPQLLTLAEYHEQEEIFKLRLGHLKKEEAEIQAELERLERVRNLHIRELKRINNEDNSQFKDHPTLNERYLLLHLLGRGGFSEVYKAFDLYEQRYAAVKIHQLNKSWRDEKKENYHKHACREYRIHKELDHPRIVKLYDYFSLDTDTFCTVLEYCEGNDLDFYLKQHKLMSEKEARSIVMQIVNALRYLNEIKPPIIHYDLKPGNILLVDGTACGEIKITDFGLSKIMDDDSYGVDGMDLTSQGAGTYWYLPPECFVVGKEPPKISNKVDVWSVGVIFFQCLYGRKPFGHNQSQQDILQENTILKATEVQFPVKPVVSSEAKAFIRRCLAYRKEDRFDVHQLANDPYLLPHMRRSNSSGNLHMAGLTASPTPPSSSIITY
The data set can be described thus: Inhibition of TLK1 at 10 uM.

Data set [4] concerns the target RAF proto-oncogene serine/threonine-protein kinase (Homo sapiens) (UniProt P04049). The data set can be described thus: Inhibition of raf kinase at 10 uM.
Data set [5] addresses T2, Inhibitor of nuclear factor kappa-B kinase subunit beta (Homo sapiens) (UniProt O14920).
T2 sequence (whole entry): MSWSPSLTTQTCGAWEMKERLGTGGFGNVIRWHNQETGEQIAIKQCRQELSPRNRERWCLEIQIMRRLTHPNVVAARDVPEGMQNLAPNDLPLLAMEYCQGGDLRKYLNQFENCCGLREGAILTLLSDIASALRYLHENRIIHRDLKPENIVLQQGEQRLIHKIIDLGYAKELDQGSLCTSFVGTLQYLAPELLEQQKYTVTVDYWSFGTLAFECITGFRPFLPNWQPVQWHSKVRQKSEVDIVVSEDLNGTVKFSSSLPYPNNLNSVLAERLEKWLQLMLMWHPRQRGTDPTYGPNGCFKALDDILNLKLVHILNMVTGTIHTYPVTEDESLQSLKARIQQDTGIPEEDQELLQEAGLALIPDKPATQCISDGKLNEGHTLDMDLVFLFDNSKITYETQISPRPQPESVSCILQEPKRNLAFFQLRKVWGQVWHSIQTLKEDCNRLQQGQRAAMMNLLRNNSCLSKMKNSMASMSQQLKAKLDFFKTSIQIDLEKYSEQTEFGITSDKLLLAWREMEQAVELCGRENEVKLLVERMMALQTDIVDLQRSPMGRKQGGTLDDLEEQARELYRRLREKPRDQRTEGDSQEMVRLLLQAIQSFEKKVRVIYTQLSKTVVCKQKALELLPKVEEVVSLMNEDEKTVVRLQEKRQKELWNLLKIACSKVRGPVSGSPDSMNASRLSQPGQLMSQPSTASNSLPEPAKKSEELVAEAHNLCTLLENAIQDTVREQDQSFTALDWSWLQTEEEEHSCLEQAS
The data set can be described thus: Inhibition of IKK-beta up to 8 uM.

The target of data set [6] is Protein kinase C theta type (Homo sapiens) (UniProt Q04759). Kind of data set: Inhibition of PKCtheta up to 8 uM.
Protein kinase C theta type (Homo sapiens), sequence (Q04759 whole entry, looked up): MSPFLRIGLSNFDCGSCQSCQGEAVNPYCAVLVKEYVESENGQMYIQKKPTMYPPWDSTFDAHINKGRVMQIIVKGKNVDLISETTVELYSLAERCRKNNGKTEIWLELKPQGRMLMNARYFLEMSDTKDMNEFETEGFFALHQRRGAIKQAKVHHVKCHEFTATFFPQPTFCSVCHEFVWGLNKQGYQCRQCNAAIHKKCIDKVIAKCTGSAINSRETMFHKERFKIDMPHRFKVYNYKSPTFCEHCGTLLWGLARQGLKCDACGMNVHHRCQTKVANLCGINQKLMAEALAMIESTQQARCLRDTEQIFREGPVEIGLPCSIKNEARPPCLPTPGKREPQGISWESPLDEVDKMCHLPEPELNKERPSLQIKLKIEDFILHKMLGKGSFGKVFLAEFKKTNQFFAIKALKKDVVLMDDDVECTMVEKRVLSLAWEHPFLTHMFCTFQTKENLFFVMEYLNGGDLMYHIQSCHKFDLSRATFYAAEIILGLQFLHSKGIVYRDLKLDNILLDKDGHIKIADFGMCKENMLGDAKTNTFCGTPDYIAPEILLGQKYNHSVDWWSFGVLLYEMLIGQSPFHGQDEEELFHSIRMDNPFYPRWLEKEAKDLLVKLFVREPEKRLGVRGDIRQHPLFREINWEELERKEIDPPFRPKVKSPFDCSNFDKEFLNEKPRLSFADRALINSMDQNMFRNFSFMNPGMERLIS
For data set [7], the target named is Protein kinase C beta type (Homo sapiens) (UniProt P05771). The data set can be described thus: Inhibition of PKCbeta up to 8 uM.
Protein kinase C beta type (Homo sapiens), sequence (P05771 2-671 limits assumed): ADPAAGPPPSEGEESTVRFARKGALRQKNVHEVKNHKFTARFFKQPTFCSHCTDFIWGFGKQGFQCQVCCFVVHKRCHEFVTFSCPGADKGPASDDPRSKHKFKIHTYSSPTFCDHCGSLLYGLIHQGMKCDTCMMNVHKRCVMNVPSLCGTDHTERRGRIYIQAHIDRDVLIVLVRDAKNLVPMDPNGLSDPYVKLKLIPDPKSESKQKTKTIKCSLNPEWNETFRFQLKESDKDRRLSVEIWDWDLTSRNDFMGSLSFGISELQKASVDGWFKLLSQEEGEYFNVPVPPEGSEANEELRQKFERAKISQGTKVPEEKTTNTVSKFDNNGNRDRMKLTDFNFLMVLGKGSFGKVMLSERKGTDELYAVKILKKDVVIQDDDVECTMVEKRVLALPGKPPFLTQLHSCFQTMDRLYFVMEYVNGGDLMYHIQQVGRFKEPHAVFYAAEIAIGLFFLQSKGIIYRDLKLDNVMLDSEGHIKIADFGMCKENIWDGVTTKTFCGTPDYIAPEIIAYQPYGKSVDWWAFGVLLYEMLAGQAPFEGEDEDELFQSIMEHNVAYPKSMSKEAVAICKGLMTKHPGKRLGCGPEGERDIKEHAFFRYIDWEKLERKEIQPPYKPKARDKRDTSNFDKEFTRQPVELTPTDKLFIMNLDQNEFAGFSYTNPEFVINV
Data set [8] in a line: Drug level in mouse blood at 50 mg/kg, ip after 3 hrs by LC/MS analysis. The format is ADME, organism-based. More on the design: dose 50 mg/kg, route intraperitoneal. The settings on record: whole blood, read-out: Drug uptake.
A short description of data set [9]: Drug level in mouse blood at 50 mg/kg, ip after 0.5 hrs by LC/MS analysis. It counts as ADME, organism-based. The settings on record: whole blood, read-out: Drug uptake. More on the design: dose 50 mg/kg, route intraperitoneal.
Data set [10] is described as follows: Drug level in mouse blood at 30 mg/kg, ip after 3 hrs by LC/MS analysis. The format is ADME, organism-based. The settings on record: whole blood, read-out: Drug uptake. More on the design: dose 30 mg/kg, route intraperitoneal.
A short description of data set [11]: Drug level in mouse blood at 30 mg/kg, ip after 0.5 hrs by LC/MS analysis. It counts as ADME, organism-based. More on the design: dose 30 mg/kg, route intraperitoneal. The settings on record: whole blood, read-out: Drug uptake.
A short description of data set [12]: Drug level in mouse blood at 10 mg/kg, ip after 3 hrs by LC/MS analysis. It counts as ADME, organism-based. More on the design: dose 10 mg/kg, route intraperitoneal. The settings on record: whole blood, read-out: Drug uptake.
A short description of data set [13]: Drug level in mouse blood at 10 mg/kg, ip after 0.5 hrs by LC/MS analysis. It counts as ADME, organism-based. More on the design: dose 10 mg/kg, route intraperitoneal. The settings on record: whole blood, read-out: Drug uptake.
Data set [14] in a line: Cytotoxicity against human HEK293 cells after 24 hrs by ATP-lite 1-step assay. The settings on record: read-out: LD50. It counts as cell-based.
Data set [15] in a line: Cytotoxicity against human Fa2N-4 cells after 24 hrs by ATP-lite 1-step assay. The format is cell-based. The settings on record: read-out: LD50.
Data set [16] is described as follows: Metabolic stability in mouse liver microsomes assessed as compound remaining at 1 uM after 1 hr by LC/MS/MS analysis. The settings on record: read-out: Stability. It counts as ADME, Microsome.
A short description of data set [17]: Metabolic stability in mouse liver microsomes assessed as compound remaining at 10 uM after 1 hr by LC/MS/MS analysis. The settings on record: read-out: Stability. The format is ADME, Microsome. A general note: Liver microsomes are a subcellular fraction often used to study metabolism.
Data set [18] in a line: Metabolic stability in human liver microsomes assessed as compound remaining at 1 uM after 1 hr by LC/MS/MS analysis. It counts as ADME, Microsome. The settings on record: read-out: Stability.
Data set [19] can be described thus: Metabolic stability in human liver microsomes assessed as compound remaining at 10 uM after 1 hr by LC/MS/MS analysis. The format is ADME, Microsome. The settings on record: read-out: Stability.
The nature of data set [20]: Permeability at 50 uM at pH 7.4 by PAMPA. It counts as ADME. The settings on record: pH 7.4, 50 µM.
The nature of data set [21]: Permeability at 50 uM at pH 5 by PAMPA. It counts as ADME. The settings on record: pH 5, 50 µM.
A short description of data set [22]: Permeability at 50 uM at pH 6.2 by PAMPA. The settings on record: pH 6.2, 50 µM. The format is ADME.
Data set [23] is described as follows: Aqueous solubility at pH 7.4 after 18 hrs by UV kinetic solubility method. The settings on record: aqueous medium. It counts as physicochemical.
Data set [24] is described as follows: Aqueous solubility at pH 6.2 after 18 hrs by UV kinetic solubility method. It counts as physicochemical. The settings on record: aqueous medium.
A further data set has as its system HEK293. Kind of data set: Inhibition of NF-kappaB activation transfected in TNF-alpha-stimulated HEK293 cells after 16 hrs by luciferase reporter gene assay. The format is cell-based.
Data set [25] is described as follows: Aqueous solubility at pH 5 after 18 hrs by UV kinetic solubility method. The settings on record: aqueous medium. The format is physicochemical.

In brackets after ≈: the same amount, converted by molar mass. Activity calls are given as the source filed them. No cut-off for these calls is given here. Bounds are passed on as bounds.

We go through 18 molecules from ChEMBL document CHEMBL1177698, “Inhibition of protein kinase C-driven nuclear factor-kappaB activation: synthesis, structure-activity relationship, and pharmacological profiling of pathway specific benzimidazole probe molecules” (J Med Chem, 2010).

The term IC50 denotes the concentration that inhibits the measured activity by half. The low end stands for higher potency, the high end for lower potency. The inhibition is the drop in the measured response relative to a control, in per cent. Broadly, the solubility (kinetic) is solubility judged after dilution from a stock solution rather than from solid.

RAF proto-oncogene serine/threonine-protein kinase (Homo sapiens), sequence (P04049 whole entry): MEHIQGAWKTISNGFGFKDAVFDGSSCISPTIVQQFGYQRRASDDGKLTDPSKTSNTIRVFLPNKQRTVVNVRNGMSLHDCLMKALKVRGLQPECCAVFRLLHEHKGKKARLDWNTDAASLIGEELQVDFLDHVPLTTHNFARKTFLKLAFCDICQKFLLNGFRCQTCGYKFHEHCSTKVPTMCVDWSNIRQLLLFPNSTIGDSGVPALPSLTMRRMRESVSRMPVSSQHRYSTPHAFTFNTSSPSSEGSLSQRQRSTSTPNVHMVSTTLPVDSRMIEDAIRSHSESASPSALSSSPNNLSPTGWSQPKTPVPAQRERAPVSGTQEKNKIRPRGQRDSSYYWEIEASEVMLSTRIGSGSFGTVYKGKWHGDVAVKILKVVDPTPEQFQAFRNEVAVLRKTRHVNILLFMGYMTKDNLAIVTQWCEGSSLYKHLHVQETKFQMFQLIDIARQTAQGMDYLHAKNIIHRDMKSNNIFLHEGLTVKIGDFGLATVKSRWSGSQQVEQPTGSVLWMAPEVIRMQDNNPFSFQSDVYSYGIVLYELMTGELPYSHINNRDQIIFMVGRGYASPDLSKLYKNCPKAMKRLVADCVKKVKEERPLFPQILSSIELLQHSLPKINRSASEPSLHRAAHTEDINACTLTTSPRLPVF
Tyrosine-protein kinase JAK2 (Homo sapiens), sequence (O60674 whole entry): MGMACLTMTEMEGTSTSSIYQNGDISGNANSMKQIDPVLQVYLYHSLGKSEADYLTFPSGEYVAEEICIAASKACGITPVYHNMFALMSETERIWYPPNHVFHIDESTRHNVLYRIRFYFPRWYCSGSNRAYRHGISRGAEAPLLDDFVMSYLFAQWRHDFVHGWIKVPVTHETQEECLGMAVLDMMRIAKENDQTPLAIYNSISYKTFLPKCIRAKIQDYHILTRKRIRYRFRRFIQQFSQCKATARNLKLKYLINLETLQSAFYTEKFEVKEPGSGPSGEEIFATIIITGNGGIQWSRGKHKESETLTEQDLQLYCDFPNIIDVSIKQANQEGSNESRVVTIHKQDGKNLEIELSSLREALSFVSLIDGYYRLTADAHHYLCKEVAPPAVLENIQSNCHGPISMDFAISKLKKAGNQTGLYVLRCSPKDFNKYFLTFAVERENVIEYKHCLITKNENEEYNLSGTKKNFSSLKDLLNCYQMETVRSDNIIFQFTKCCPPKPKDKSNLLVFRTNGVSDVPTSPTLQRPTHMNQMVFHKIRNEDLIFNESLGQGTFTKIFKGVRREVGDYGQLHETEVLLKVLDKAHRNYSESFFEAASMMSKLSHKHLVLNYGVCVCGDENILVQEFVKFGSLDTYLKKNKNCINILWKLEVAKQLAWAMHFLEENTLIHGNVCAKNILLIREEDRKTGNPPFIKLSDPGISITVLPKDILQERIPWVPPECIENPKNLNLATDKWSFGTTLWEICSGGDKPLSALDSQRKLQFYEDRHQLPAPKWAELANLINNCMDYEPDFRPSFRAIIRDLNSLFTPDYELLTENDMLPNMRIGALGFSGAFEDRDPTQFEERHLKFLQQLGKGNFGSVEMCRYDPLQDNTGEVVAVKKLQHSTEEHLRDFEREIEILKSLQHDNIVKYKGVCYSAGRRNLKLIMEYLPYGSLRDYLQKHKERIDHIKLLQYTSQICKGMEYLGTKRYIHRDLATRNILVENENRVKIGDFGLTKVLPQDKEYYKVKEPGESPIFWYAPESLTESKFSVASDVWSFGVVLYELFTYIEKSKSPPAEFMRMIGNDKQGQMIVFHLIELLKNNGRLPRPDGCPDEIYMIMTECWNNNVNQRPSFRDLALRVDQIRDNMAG

On to `CC(C)(C)c1cc(C(=O)Cn2c(NCCCO)nc3ccc(Br)cc32)cc(C(C)(C)C)c1O`, for which the IC50 in [1] turned out to be 6 µM.

`CC(C)(C)c1cc(C(=O)Cn2c(NCCCO)nc3cc(Br)ccc32)cc(C(C)(C)C)c1O`: the IC50 in data set [1] came to 3 µM.

With `CC(C)(C)c1cc(C(=O)Cn2c(NCCCO)nc3ccc(-c4ccccc4)cc32)cc(C(C)(C)C)c1O`, the IC50 in [1] was 0.9 µM.

For `CC(C)(C)c1cc(C(=O)Cn2c(NCCCO)nc3cc(N)ccc32)cc(C(C)(C)C)c1O`, the IC50 in data set [1] was 0.8 µM.

For the molecule `CC(C)(C)c1cc(C(=O)Cn2c(NCCCO)nc3ccc([N+](=O)[O-])cc32)cc(C(C)(C)C)c1O`, in data set [1], the IC50 is > 8 µM.

With `Cc1cc2nc(N3CCC(O)CC3)n(CC(=O)c3cc(C(C)(C)C)c(O)c(C(C)(C)C)c3)c2cc1C`, the IC50 in [1] came out at 13 µM.

In data set [1], `Cc1cc2nc(NCCCO)n(CC(=O)c3cc(C(C)(C)C)cc(C(C)(C)C)c3)c2cc1C` displayed a half-inhibitory concentration (IC50) of 0.1 µM. This IC50 is about 130-fold lower than that of the molecule before.

`CCCCNc1nc2cc(C)c(C)cc2n1CC(=O)c1cc(C(C)(C)C)c(O)c(C(C)(C)C)c1` registered an IC50 in [1] of 0.8 µM.

Regarding `CC(C)(C)c1cc(C(=O)Cn2c(NCCCO)nc3cc(-c4ccccc4)ccc32)cc(C(C)(C)C)c1O`, 0.6 µM corresponded to half-maximal inhibition in data set [1] (IC50). The IC50 values of the last two molecules are within 1.5-fold of each other.

In data set [1], `Cc1cc2nc(NCCCO)n(CC(=O)c3cccc(C(C)(C)C)c3)c2cc1C` registered an IC50 of 11 µM.

In [1], `COCCCNc1nc2cc(C)c(C)cc2n1CC(=O)c1cc(C(C)(C)C)c(O)c(C(C)(C)C)c1` returned an IC50 of 0.3 µM.

Consider `CC(C)(C)c1cc(C(=O)Cn2c(NCCCO)nc3cc([N+](=O)[O-])ccc32)cc(C(C)(C)C)c1O`, for which half-maximal inhibition in data set [1] (IC50) was put at 2 µM.

In data set [1], `CC(C)(C)c1cc(C(=O)Cn2c(NCCCO)nc3cc(C(=O)c4ccccc4)ccc32)cc(C(C)(C)C)c1O` showed an IC50 of 1.8 µM.

With `CC(C)(C)c1cc(C(=O)Cn2c(NCCCO)nc3ccc(N)cc32)cc(C(C)(C)C)c1O`, the IC50 in data set [1] is 0.4 µM. Compared with the last molecule, the IC50 is about 4.5-fold lower.

As to `Cc1cc2nc(NCCCO)n(CC(=O)c3cccc(OC(C)(C)C)c3)c2cc1C`, the midpoint of inhibition in data set [1], the IC50, lay at 16 µM.

As for `CNc1nc2cc(C)c(C)cc2n1CC(=O)c1cc(C(C)(C)C)c(O)c(C(C)(C)C)c1`, the IC50 in data set [1] was 0.3 µM.

As to `Cc1cc2nc(NC3CCC(O)CC3)n(CC(=O)c3cc(C(C)(C)C)c(O)c(C(C)(C)C)c3)c2cc1C` (configuration not stated), in data set [1], the IC50 came out at 0.1 µM.

As to `Cc1cc2nc(NCCCO)n(CC(=O)c3cc(C(C)(C)C)c(O)c(C(C)(C)C)c3)c2cc1C`, the inhibition in data set [2] was 53%; in [3], 70%; in data set [4], 57%. The inhibition entry (in data set [5]; in data set [6]; in [7]; in the data set on HEK293) was “inactive” each time. In addition, the concentration at 3 h is 6.96 µM in [8], 3.64 µM in data set [10] and 0.5 µM in [12]. Besides, the figures for the concentration at 0.5 h in data set [9], in [11] and in data set [13] were 5.93 µM, 8.28 µM and 1.81 µM, respectively. Besides, the CC50 at 24 h came to 40 µM in data set [14] and 47 µM in data set [15]. In addition, the remaining at 1 h, 1 µM in [16] was 0.5%; in data set [18] it was 26%. Also, the remaining at 1 h, 10 µM came to 19% in data set [17] and 55% in data set [19]. The permeability in data set [20] turned out to be 441 ×10⁻⁶ cm/s; in [21], 299 ×10⁻⁶ cm/s; in [22], 710 ×10⁻⁶ cm/s. Moreover, the results for the kinetic solubility at 18 h in data set [23], in data set [24] and in data set [25] were 0.7 µg/mL (≈ 1.5 µM), 0.5 µg/mL (≈ 1.07 µM) and 42 µg/mL (≈ 90.2 µM), respectively.
